The term melting point denotes the temperature, or range, at which the solid turns liquid.

For the compound `COC(=O)C=Cc1cc2ccccc2o1`, the melting point was 84 to 86 °C.
Take `O=C1c2cccc3cccc(c23)C(=O)N1CCO`: the melting point lay within 172 to 173 °C.
Regarding `Nc1cc(F)nc(F)c1F`, the melting point lay in the range of 94 to 96 °C.
On to `CCOC(=O)c1cc(-n2c(=O)cc(C)n(C)c2=O)ccc1Cl`, for which the melting point fell in the range of 120 to 122 °C.
With `Cc1c(-c2cnc(N(C)C)nc2)ssc1=S`, the melting point worked out at 135 °C.
For `CSC(=NCc1ccc(CCO)cc1)NC#N`, the melting point was in the range of 164 to 165 °C.
`O=C(O)C(=O)Nc1ccc2c(=O)c3c(oc2c1)C(=Cc1ccc2c(c1)OCO2)CC3` yielded a melting point of 300 to 305 °C.
Turning to `Cc1oc(-c2ccccc2)nc1COc1cc(COc2ncccc2C=O)on1`, the melting point lay within 90 to 91 °C.
`CSc1nn2c(N(C)C)cc(C)nc2c1S(=O)(=O)c1ccc(C)cc1` gave a melting point above 230 °C.
For the compound `CC(C)c1cccc(C(C)C)c1NC(=O)CNC(c1cccc(C(F)(F)F)c1)c1cccc(C(F)(F)F)c1`, the melting point is 144 to 145 °C.
Compound `CS(=O)(=O)c1ccc(C(CC2CCCC2)C(=O)Nc2nccs2)cc1C#N` (configuration not stated) returned a melting point of 145 to 148 °C.
`COC(=O)[C@@]12CO[C@@H](C(C)(C)C)N1C(=O)[C@@H](Cc1ccccc1)C2`: the melting point lay within 130 to 131 °C.
Then `CC(C)C1NC(=S)N(c2ccc(N(C)C)c3ccccc23)C1=O` (configuration not stated), with 108 to 110 °C; and `CCc1ccccc1-c1cn(C)cc(-c2cccc(C(F)(F)F)c2)c1=O`, with 123 to 125 °C; and `CC1(c2ccccc2)C(=O)Nc2cc(Cl)ccc2C1=O` (configuration not stated), with 174 to 175 °C.
As for `COC(=O)c1cccc(OC)c1OCCC#N`, the melting point fell in the range of 74 to 75 °C.
In turn, `CC(C)(C)c1cc(CCc2nnco2)cc(C(C)(C)C)c1O` yielded a melting point of 100 to 101 °C.
Compound `CNC(=O)c1cc(C#N)cc(C)c1NC(=O)c1cc(C(F)(F)F)nn1-c1ncccc1Cl` yielded a melting point of 214 to 216 °C.
`Cc1ccccc1N=c1scc(-c2ccc(Cl)c(S(=O)(=O)N(C)C)c2)n1C`: the melting point was 158 to 162 °C.
As for `CC1=C(C(=O)OC(C)(C)C)C(c2cc(Br)ccc2F)C(C(=O)OC(C)(C)C)=C(C)N1`, the melting point lay in the range of 173 to 174 °C.
`CCCC(=O)Nc1n[nH]c2c(F)c(F)ccc12` returned a melting point of 191 °C.
In turn, `CSc1ccc(C2OC(=O)NC2CO)cc1` (configuration not stated) displayed a melting point of 130 to 131 °C.
As for `CCOC(=O)CN1CCN(c2cccc(C3=NC(C)(C)Cc4cc(OC)c5c(c43)CC(C)(C)O5)c2)S1(=O)=O`, the melting point was in the range of 153 to 155 °C.
Compound `COc1cc(C(=O)O)ccc1Cc1cn(C)c2ccc(CCNC(=O)N(C)C)cc12` showed a melting point of 195 to 196 °C.
The compound `COn1cc(C#N)c(C#N)c1-c1ccc(Cl)cc1` returned a melting point of 126 to 127 °C.
Consider `C=CCc1c(O)c(Br)cc2c1[C@H](CCNC(=O)CC)CC2`, for which the melting point lay in the range of 85 to 87 °C.
In turn, `COc1cc2[nH]cc(-c3cc4c(Cl)c(F)cnc4[nH]3)c2nc1OC` displayed a melting point of 283 to 284 °C.
In the case of `CCOC(=O)N1CCC(Nc2nc3cncnc3n2Cc2ccco2)CC1`, the melting point is 172 °C.
The figure for `Cc1ccc(C(=O)NCCN(C)C)cc1-n1c(C)cc(OCc2ccccc2CNC(=O)Nc2cc(C(C)(C)C)nn2-c2ccc(O)c(Cl)c2)c(Cl)c1=O` is 181 to 182 °C; for `CC12CCC3C(CC=C4CC(O)CCC43C)C1=CCC2=O` (configuration not stated) it is 161 to 164 °C.
Take `CC(c1cccc(C(F)(F)F)c1N)S(C)(=O)=O` (configuration not stated): the melting point was in the range of 153 to 155 °C.
The figure for `CCC(=O)OC1(C(=O)CCl)C(C)CC2C3CCC4CC(=O)CCC4(C)C3=CCC21C` (configuration not stated) is 140 to 142 °C; for `COC(=O)CC1CCN(C(=O)c2cnc(-c3ccc(C(=N)NC(=O)OC)cc3)nc2OC)CC1` it is 193 to 195 °C.
In turn, `CCOC(=O)NC(=N)NC#N` had a melting point of 193 to 194 °C.
In the case of `CN(C)Cc1cn(CCC(=O)O)c(=S)n1C1CCc2ccccc2C1` (configuration not stated), the melting point lay within 171 to 174 °C.
`CCOP(C)(=O)c1cc(Cl)ccc1Cl` (configuration not stated) gave a melting point of 90 to 91 °C.
On to `CCCc1nc2c(N)nc3cc(-c4cccc(C(=O)N(CC)CC)c4)ccc3c2s1`, for which the melting point fell in the range of 169 to 172 °C.
`O=C1Nc2cccc(-c3cccc(NS(=O)(=O)c4cc(S(=O)(=O)c5ccccc5)cs4)c3)c2/C1=C/c1ccc[nH]1`: the melting point was 132 to 134 °C.
`CON=C(C(=O)O)c1nsc(NC=O)n1` registered a melting point of 185 to 186 °C.
`COc1cccc(Nc2ccnc(Nc3cc(NC(C)=O)c(OC)c(OC)c3)n2)c1` showed a melting point of 158 to 160 °C.
Then `CCCOc1c(OC)cc([C@H]2CC[C@H](c3cc(OC)c(OC)c(OC)c3)O2)cc1S(C)(=O)=O` (relative stereo), with 95 to 96 °C; and `NN=CNc1nc(CSCCN=CNS(=O)(=O)c2ccc(Br)cc2)cs1`, with 107 to 110 °C; and `CCOCn1c(Br)c(Br)c(C#N)c1C(F)(F)F`, with 65 to 67 °C.
The compound `CCCC1=C(C(=O)OCC)C(C)(c2ccccc2)c2c[nH]nc2N1` (configuration not stated) returned a melting point of 207 °C.
`COc1ccc(C2(C#N)CCC(C(N)=O)CC2)cc1OC1CCCC1` (configuration not stated) yielded a melting point of 100 to 102 °C.
For the compound `CCOC(=O)Cn1c(=O)c2cc(OC)ccc2n(Cc2ccc(Cl)cc2Cl)c1=O`, the melting point fell in the range of 167 to 168 °C.
`CCCCCCCCCCCCNC(=S)NCCCC`: the melting point is 49 to 55 °C.
With `Nc1c(-c2cc(Cl)ccc2O)c2cc([N+](=O)[O-])ccc2[nH]c1=O`, the melting point fell in the range of 344 to 347 °C.
In the case of `CCCCC1=NC(Cl)(COC)CN1Cc1ccc(C(=O)O)cc1` (configuration not stated), the melting point is 126 to 128 °C.
In turn, `COC(=O)c1ccc(OCC2CO2)cc1O` (configuration not stated) gave a melting point of 53 to 55 °C.
In turn, `Cc1cccc(Cl)c1NC(=O)CN1CCN(CCCC(c2ccc(F)cc2)c2ccc(F)cc2)C(CO)C1` (configuration not stated) showed a melting point of 150 °C.
Compound `CCC1(O)CC2CC[C@]1(CS(=O)(=O)N1CCC3(C=Cc4ccccc43)CC1)C2(C)C` (some centres not stated) registered a melting point of 171 to 173 °C.
`CCN(CCO)CC(C)N1c2ccccc2Sc2ccc(C(=S)NCc3ccccc3)cc21` (racemic) displayed a melting point of 154 °C.
For the compound `Cc1cc2ccc(Cl)c(C(=O)O)c2nc1C(F)(F)F`, the melting point is 186 to 188 °C.
With `Cc1cccc(C2CCN(CCCCCC(=O)N3Cc4ccccc4C3)CC2)c1C#N`, the melting point is 132 °C.
Then `Cn1ncnc1COc1nc2c(cc1C1CCC1)nnn2-c1ccccc1F`, with 120 to 122 °C.
`Cc1c(-c2ccc(OCc3ccccc3)cc2)n(Cc2ccc(OCCN3[C@H](C)CCC[C@@H]3C)cc2)c2ccc(OCc3ccccc3)cc12` came in with a melting point of 106 to 107 °C.
`CCCn1c(=O)c(C(=O)OCC)c(O)c2cnc(-c3ccccc3)nc21` showed a melting point of 164 to 167 °C.
As to `Cc1ccccc1-c1c(Cn2cnc3c(N)ncnc32)oc2ccc(Br)cc2c1=O`, the melting point fell in the range of 252 to 255 °C.
In the case of `CC(=O)OC1CC2CCC3C(CCC4(C)C3CC(N3CCCCC3)C4OC(C)=O)C2(C)CC1N1CCOCC1` (configuration not stated), the melting point lay within 119 to 128 °C.
Then `Cc1[nH]c(=O)ccc1C(=O)c1ccccc1`, with 185 to 187 °C.
For `COC(=O)NC(=O)c1nc(Cl)c(Cl)[nH]1`, the melting point is 247 °C.
The compound `N#CC(=Cc1ccc(O)c(O)c1)C(=O)O` registered a melting point of 240 °C.
As for `CCCCCCCCCCCCn1nnc(CC(=O)Nc2c(C(C)C)cccc2C(C)C)n1`, the melting point is 75 to 79 °C.
Then `CN(C)C1(c2ccccc2)CCC2(OCCc3c2[nH]c2ccc(F)cc32)C(Cc2cccc(F)c2)C1` (configuration not stated), with 133 to 135 °C; and `Brc1cncc(OCc2ccc3ccccc3c2)c1`, with 108 to 109 °C; and `CCc1ncnc(Cl)c1I`, with 56 to 57 °C.
For `CC(=O)NC=Cc1ccc(OC(C)=O)cc1`, the melting point lay in the range of 165 to 166 °C.
With `O=C(O)COc1cc(F)ccc1C(=O)NCc1nc2c(F)c(F)cc(F)c2s1`, the melting point lay within 172 to 174 °C.
`CC(C)(C)OC(=O)C(F)=CC1C(C(=O)OC(C#N)c2ccc(F)c(Oc3ccccc3)c2)C1(C)C` (configuration not stated) came in with a melting point of 122 °C.
The figure for `CCCCc1ncc(/C=C(\Cc2cccs2)C(=O)O)n1Cc1ccc(OC)c(C)c1` is 140 to 141 °C; for `CN(C)C(=O)c1cc(Cl)c(N)c(Cl)c1` it is 134 °C; for `CC(O)(Cc1ccccc1)CN1CCC2(CC1)CSC1=C(O2)c2ccccc2C(=O)C1=O` (configuration not stated) it is 186 to 187 °C.
For `CCCNC(=O)c1cc(-c2ccc(OC)cc2)nn(CC2CCCC2)c1=O`, the melting point stood at 110 °C.
Take `CC(=O)c1ccc(C(=O)NCCOc2ccc3ccccc3c2)cc1`: the melting point lay in the range of 131 to 132 °C.
In turn, `CN(c1ccnc(C(N)=O)c1)c1ccccc1C(=O)Nc1cc2ccccc2cn1` showed a melting point of 200 °C.
Then `O=S1(=O)N=C2CCCN2c2ccc(Oc3cccc(-c4ccoc4)c3)cc21`, with 128 to 132 °C; and `CC(=O)Nc1nc(CCc2ccc(CO)cc2)c(Cc2ccc(S(C)(=O)=O)cc2)s1`, with 210 to 211 °C; and `CCOC(=O)c1c(Cl)c2sccc2[nH]c1=O`, with 206 °C.
With `CC1C(=O)N(c2cccc(F)c2)C(=S)N1c1ccc(Oc2ccccc2)cc1` (configuration not stated), the melting point came to 116 °C.
Compound `O=C(c1ccc(OCCN2CCCC2)cc1)c1c(-c2ccc(Cl)cc2)sc2ccccc12` came in with a melting point of 97 to 98 °C.
As for `CCc1oc2ccccc2c1C(C)(C)C(N)=NO`, the melting point is 118 to 120 °C.
`CC(OCc1cc2nc(C(F)(F)F)ccc2n1S(=O)(=O)c1ccc2ncsc2c1)C(=O)O` (configuration not stated) gave a melting point of 124 °C.
Then `O=C1c2cccc3cc4ccccc4c(c23)C(=O)N1CCCNCCCCNCCCN1C(=O)c2cccc3cc4ccccc4c(c23)C1=O`, with 183 °C; and `Cc1cc(C)c(Nc2nc(Nc3ccc(C#N)cc3)ncc2-c2ccccc2)c(C)c1`, with 209 to 214 °C.
As for `O=CC(CC(=O)c1ccc(F)cc1)c1ccccc1` (configuration not stated), the melting point fell in the range of 192 to 194 °C.
Regarding `OCC1OC(n2cnc3c(SCc4ccccc4)cc(Cl)nc32)C(O)C1O` (configuration not stated), the melting point fell in the range of 154 to 156 °C.

Values taken from a melting point compilation (Tetko et al.; mined from patent text by program, amines drawn as free bases though some values may be those of a salt).
